Patent US8193373B2, “Therapeutic compounds” (Allergan, Inc., priority 2006, dated 2012)

How the values were obtained:
EP2 receptor [1] = target: T1, EP2 receptor (Homo sapiens, UniProt P43116); experiment: cAMP assay at the EP2 receptor (assays described in WO 2005/044501); type: cell-based
Excerpt: (§1) The compound above has the following activity at the EP2 receptor according to the assays described in WO 2005/044501.

EP2 receptor [2] = target: T1, EP2 receptor; experiment: Binding at the EP2 receptor (assays described in WO 2005/044501)
Excerpt: as §1

T1 sequence (P43116 whole entry): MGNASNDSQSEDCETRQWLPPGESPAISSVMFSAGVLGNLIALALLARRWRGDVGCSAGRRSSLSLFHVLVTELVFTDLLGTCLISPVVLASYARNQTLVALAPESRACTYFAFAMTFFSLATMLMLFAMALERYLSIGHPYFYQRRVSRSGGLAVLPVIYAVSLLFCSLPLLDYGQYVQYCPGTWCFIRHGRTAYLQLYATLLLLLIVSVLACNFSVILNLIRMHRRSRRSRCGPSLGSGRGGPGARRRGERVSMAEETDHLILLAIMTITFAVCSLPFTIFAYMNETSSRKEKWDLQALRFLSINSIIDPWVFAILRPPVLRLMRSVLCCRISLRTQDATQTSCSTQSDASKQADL

Compound `N#C[C@@H]1C[C@@H](O)[C@H](/C=C/CC(O)C2(Cc3ccc(Cl)s3)CCC2)[C@H]1C/C=C\CCCC(=O)O` (stereo partly drawn) [(Z)-7-((1S,2R,3R,5R)-2-((E)-4-(1-((5-chlorothiophen-2-yl)methyl)cyclobutyl)-4-hydroxybut-1-enyl)-5-cyano-3-hydroxycyclopentyl)hept-5-enoic acid] has an EC50 (EP2 receptor [1]) of 3 nM and a Ki (EP2 receptor [2]) of 116 nM.
